Data set [1] concerns Human colonic CCD-18Co fibroblasts. The data set can be described thus: TGF-β1-induced fibrogenesis in CCD-18Co fibroblasts. The data set is classed as cell-based. The procedure: Cleveland Clinic IRB directives (IRB #17-1167). Primary non-IBD patient-derived colonic fibroblasts (H6231) were purchased from Cell Biologics. All primary colonic fibroblasts were cultured in fibroblast medium (M2267, Cell Biologics). Human colonic CCD-18Co fibroblasts (ATCC) were cultured in minimal essential medium Eagle's medium (MEM) containing 10% fetal bovine serum and 1% penicillin-streptomycin 6, 20. All fibroblasts were grown to 80% confluence and then switched to serum-free media overnight for experiments.
For activation of protease-activated receptors (PARs), fibroblasts were pretreated with 0.8% DMSO, 10 μM PAR1 agonist TRAP-6 (HY-P0078, MCE), 10 μM PAR2 agonist SLIGKV-NH2 (Protease-Activated Receptor-2, amide, HY-P0283, MCE), or 0.4 μg/ml PAR2-activating protease recombinant cathepsin S (1183-CY-010, R&D Systems) for 30 minutes. For miR205-5p activation, fibroblasts were transfected with (30 picomoles/well) either control (YM00479902) or miR205-5p miRCURY LNA mimic (YM00472340) from Qiagen via Lipofectamine 3000 transfection reagent (L3000001, ThermoFisher) in Opti-MEM (#31985062, ThermoFisher) overnight. For miR205-5p inhibition, fibroblasts were pretreated with 50nM either control (Y100199006) or miR205-5p power inhibitors (Y104101508-DDA) from Qiagen overnight. For overexpression of zinc finger E-box homeobox 1 (ZEB1), fibroblasts were infected with […] infectious units/plate either control (PS100064V) or human ZEB1-overexpressing lentivirus (RC217704L1V) from Origene, Inc. overnight.
The fibroblasts were pretreated with either 0.1% TFA (vehicle), 10 ng/ml transforming growth factor-beta 1 (TGF-p1), or 100 μg/ml serum exosomes from stricturing CD (CDSE) patients for two hours to induce fibrogenesis, followed by incubation with elafin (AS-61641, Anaspec) for 2-24 hours. Serum exosomes from CD patients were used to mimic the chemical environment of CD [12]. At the end of the experiments, the cells were lysed with either RLT buffer for RNA experiments or radioimmunoprecipitation assay (RIPA) buffer for ProCOL1A1 (DY6220-05, R&D Systems), COL1A2 (MBS2701496, MyBioSource), ZEB1 (MBS774017, MyBioSource), or phosphorylated ERK1/2 (DYC1018B, R&D Systems) ELISAs.

The test system of the next data set is TNBS-treated mice. In words: TNBS-associated colonic fibrosis in mice. The data set is classed as in vivo. The procedure:
Eight-week-old male and female CD-1 mice (#022, Charles River Laboratories) were injected with 50pL TNBS solution (to induce colonic fibrosis) or 30% ethanol (vehicle) via enema weekly for five weeks. After the last TNBS injection, the mice were held for two additional weeks to develop colonic fibrosis. Some of the mice were injected with 5 μg/mouse of either control (PS100001) or elafin-expressing construct (RC203136) from
Origene via InvivoJetPEI transfection reagent (201-10G, Polyplus) intracolonically on the 9th day after the last TNBS injection or five days before the end of experiment.
Some of the mice received either a single intraperitoneal injection of 10 mg/kg anti-tumor necrosis factor-alpha (anti-TNFα) neutralizing antibody (6E0058, BioXCell) or oral antibiotic mixture in drinking water ad libitum from the 9th day after the last TNBS injection to the endpoint of the experiment. The antibiotics mixture contains kanamycin (0.4 mg/mL), gentamicin (0.035 mg/mL), colistin (850 U/mL), metronidazole (0.215 mg/mL), and vancomycin (0.045 mg/mL), which was routinely used by our laboratory for suppressing intestinal microbiota.
For PAR1/2 activation, some of the mice were injected with DMSO (50pL/mouse), 5 mg/kg PAR1 agonist TRAP-6, or 5 mg/kg PAR2 agonist SLIGKV-NH2 via enema on the 9th, 11th, and 13th days after the last TNBS injection.
For miRNA inhibition, some of the mice were injected with 5 mg/kg either control inhibitor or miR205-5p power inhibitor (Qiagen) […] via enema on the 9th, 11th, and 13th days after the last TNBS injection.
For Zeb1 manipulation, some mice received a single intraperitoneal injection (10^7 infectious units/mouse) of control lentivirus (PS100064V), Zeb1-overexpressing lentivirus (MR223095L2V), or Zeb1-shRNA lentivirus (TL513177V) from Origene, Inc. nine days after the last TNBS injection.
Dr. Xingguo Cheng produced the oral elafin-Eudragit-FS3OD formulation via a material transfer agreement (UCLA MTA2019-00000337) with the Southwest Research Institute (SWRI) in Texas. […] The mice were fed with either control-Eudragit or elafin-Eudragit in mildly acidified (pH 5) water containing 0.5% hydroxypropyl methylcellulose (HPMC) daily via oral gavage during the last five days of the experiment.
H&E and Masson Trichrome (MT) staining were performed as described previously. Microphotographs were recorded at multiple locations and scored by two investigators blindly. Intestinal injuries were scored (0-12). The severity of intestinal fibrosis was assessed by MT staining and scored (0-3). ZEB1 immunohistochemistry was performed using an anti-ZEB1 antibody (HPA027524, Sigma).
Total RNA was isolated by an RNeasy kit (#74104, Qiagen) and reverse transcribed into cDNA by a high-capacity cDNA reverse transcription kit (#4368813, ThermoFisher). PCR reactions were run with Taq Universal SYBR Green Supermix (1725120, Bio-Rad) and TaqMan real-time PCR assays (ThermoFisher) in a Bio-Rad CFX384 system. For the determination of miRNA expression, RNA was converted to cDNA using miRCURY LNA RT kit. PCR reactions were run with miRCURY LNA SYBR Green PCR kit and miRCURY LNA PCR assays (Qiagen). Relative mRNA/miRNA quantification was performed by comparing test groups and control groups after normalization with endogenous control genes. The fold changes are expressed as […]. […]
Overall disease activity (ODA) was calculated by % change of histology and fibrosis scores and colonic mRNA expression of fibrosis- and inflammation-related genes. […]

From patent US20230405078A1, “DETECTION AND TREATMENT OF INTESTINAL FIBROSIS” (THE REGENTS OF THE UNIVERSITY OF CALIFORNIA, priority 2020, published 2023) come the findings set out here.

“Also recorded” adds a separate entry of the source. Where no end group is shown, it is not given here.

On to “Elafin: small (6 kDa) human elastase-specific protease inhibitor and antimicrobial peptide; active form SEQ ID NO: 2 (AQEPVKGPVSTKPGSCPIILIRCAMLNPPNRCLKDTDCPGIKKCCEGSCGMACFVPQ; listed as Homo sapiens)”, for which, in data set [1] (CCD-18Co, ELISA of cell lysates), the “TGF-β1 induced COL1A2 and ProCOL1A1 protein expression” value is reported as “reversed”. Moreover, the “TGF-β1-induced COL1A2 (collagen) mRNA expression” value in data set [1] (TGF-β1 10 ng/ml, elafin (0.1-10 micrograms/ml) added two hours later, 24 hours) is listed as “significantly reduced; also recorded: reversed”. In addition, in data set [1] (TGF-β1-/CD serum-exosome-treated human colonic fibroblasts), the “ZEB1 mRNA and protein expression” value is reported as “decreased; also recorded: diminished”. The miR205-5p expression result in data set [1] (TGF-β1-treated CCD-18Co fibroblasts) is listed as “increased”; in data set [1] (TGF-β1-treated CCD-18Co fibroblasts, listed as elafin), “significantly increased”. The overall disease activity in the data set on TNBS-treated mice (TNBS models) is listed as 7-11%.

Consider “SLIGKV-NH2 [PAR2 agonist, reference compound]”, for which, in data set [1] (TGF-β1-treated CCD-18Co fibroblasts, agonist 10 μM), the “effect on elafin-mediated miR205-5p induction and ZEB1 inhibition” value is recorded as “reversed”. For the same substance, the “effect on elafin-mediated inhibition of collagen expression” value in data set [1] (TGF-β1-treated CCD-18Co fibroblasts, elafin 1 μg/ml) was “reversed”. For the same substance, in the data set on TNBS-treated mice (TNBS-treated mice), the “colonic injury and fibrosis” value is given as “did not affect”; the “colonic miR205-5p expression” value was “diminished”. The “effect on elafin-mediated inhibition of colonic injury, fibrosis and fibrogenic gene expression” value in the data set with TNBS-treated mice (TNBS-treated mice with intracolonic elafin overexpression) is recorded as “reversed”.
